Laboratory results reported in ChEMBL document CHEMBL1201862, “PubChem BioAssay data set” (2004).
The source made the active and inactive calls. For most assays here, no stated cut-off is given here; in the data, actives have a measured IC50 and inactives only a lower limit.

Assays:
Type in all cases: functional
Protein RecA = biological target: T1, Protein RecA (Mycobacterium tuberculosis, UniProt P9WHJ3); test: Fluorescence Cell-Free Homogeneous Dose Retest to Identify Inhibitors of RecA-Intein Splicing Activity. [Related pubchem assays (depositor defined):AID2097, AID2223, AID489010, AID492950]
T1 sequence (P9WHJ3 whole entry): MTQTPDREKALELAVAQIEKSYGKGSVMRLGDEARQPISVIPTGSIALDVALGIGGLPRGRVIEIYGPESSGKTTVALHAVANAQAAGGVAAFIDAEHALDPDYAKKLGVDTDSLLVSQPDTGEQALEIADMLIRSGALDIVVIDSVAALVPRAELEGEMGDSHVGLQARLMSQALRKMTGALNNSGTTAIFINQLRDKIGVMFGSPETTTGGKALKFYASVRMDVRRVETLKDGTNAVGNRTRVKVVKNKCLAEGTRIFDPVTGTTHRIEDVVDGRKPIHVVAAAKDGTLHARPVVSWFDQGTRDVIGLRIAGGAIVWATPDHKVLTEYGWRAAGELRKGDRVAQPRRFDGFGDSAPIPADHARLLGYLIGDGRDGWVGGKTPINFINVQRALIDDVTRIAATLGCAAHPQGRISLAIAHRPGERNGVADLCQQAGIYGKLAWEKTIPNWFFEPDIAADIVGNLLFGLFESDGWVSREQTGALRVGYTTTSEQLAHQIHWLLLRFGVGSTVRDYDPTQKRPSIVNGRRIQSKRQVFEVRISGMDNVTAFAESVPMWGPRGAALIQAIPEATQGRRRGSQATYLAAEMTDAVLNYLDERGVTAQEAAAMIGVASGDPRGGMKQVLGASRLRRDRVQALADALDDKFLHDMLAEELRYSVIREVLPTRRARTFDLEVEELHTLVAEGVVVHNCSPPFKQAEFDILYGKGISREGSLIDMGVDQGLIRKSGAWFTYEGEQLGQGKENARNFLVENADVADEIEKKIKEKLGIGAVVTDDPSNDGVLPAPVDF

Caspase-3 = biological target: T2, Caspase-3 (Homo sapiens, UniProt P42574);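 further: Dose-response selectivity test against caspase-3 for candidate inhibitors of sentrin-specific proteases (SENPs)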
T2 sequence (P42574 whole entry): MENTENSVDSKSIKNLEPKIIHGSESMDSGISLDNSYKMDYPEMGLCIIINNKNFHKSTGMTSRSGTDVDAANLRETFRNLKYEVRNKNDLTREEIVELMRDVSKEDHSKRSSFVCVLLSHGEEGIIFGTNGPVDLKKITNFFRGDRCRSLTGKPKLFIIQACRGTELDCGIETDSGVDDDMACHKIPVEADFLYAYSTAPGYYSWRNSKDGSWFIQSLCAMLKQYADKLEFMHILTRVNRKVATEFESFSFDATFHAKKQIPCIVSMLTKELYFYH

[1] = biological target: T3, Apoptotic protease-activating factor 1 (Homo sapiens, UniProt O14727)
T3 sequence (O14727 whole entry): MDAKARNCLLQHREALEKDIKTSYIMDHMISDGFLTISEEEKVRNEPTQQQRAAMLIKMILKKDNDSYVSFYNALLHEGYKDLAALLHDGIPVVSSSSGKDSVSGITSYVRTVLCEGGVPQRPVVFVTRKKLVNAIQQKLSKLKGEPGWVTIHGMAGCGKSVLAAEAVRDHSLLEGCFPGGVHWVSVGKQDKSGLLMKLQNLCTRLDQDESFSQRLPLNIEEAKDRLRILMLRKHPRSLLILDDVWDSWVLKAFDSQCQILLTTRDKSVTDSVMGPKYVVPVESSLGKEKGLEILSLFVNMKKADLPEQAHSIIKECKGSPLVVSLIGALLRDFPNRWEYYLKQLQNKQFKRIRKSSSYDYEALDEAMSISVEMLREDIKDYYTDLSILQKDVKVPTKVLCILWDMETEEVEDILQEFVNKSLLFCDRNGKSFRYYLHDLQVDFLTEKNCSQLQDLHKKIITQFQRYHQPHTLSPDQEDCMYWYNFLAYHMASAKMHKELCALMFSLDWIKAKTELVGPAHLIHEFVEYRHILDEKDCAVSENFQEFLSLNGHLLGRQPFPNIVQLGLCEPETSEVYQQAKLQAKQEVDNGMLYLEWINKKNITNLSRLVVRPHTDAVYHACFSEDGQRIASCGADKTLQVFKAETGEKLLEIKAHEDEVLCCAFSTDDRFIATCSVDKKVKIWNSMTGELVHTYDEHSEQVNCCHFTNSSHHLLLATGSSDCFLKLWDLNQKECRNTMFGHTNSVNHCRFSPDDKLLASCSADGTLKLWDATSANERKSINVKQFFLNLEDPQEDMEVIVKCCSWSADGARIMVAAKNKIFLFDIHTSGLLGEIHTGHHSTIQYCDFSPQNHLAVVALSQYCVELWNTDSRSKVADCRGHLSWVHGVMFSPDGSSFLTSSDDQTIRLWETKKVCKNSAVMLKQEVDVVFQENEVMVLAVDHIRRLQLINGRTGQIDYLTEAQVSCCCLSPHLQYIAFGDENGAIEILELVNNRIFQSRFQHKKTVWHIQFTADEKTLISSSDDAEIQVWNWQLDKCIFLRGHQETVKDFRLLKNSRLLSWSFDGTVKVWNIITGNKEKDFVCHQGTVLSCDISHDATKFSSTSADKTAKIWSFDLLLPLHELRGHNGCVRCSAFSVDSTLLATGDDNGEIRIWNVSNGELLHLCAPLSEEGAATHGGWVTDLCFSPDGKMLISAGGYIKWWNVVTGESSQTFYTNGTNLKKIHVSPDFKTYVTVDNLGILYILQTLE

| Structure (SMILES) | EC50 (Protein RecA) | IC50 (Caspase-3) | IC50 [1] |
| --- | --- | --- | --- |
| Cc1cccc(C)c1-n1cccc1/C=C1\SC(=S)N(c2cccc(C(=O)O)c2)C1=O | 9.09 µM (active) | – | – |
| Oc1ccc(/C=N/Nc2cc(N3CCCC3)nc(N3CCCC3)n2)cc1 | – | > 100 µM (inactive) | 0.707 µM (active) |
| COc1ccc(S(=O)(=O)/N=C2\C=C(Nc3ccc(O)cc3)C(=O)c3ccccc32)cc1 | 0.141 µM (active) | – | 0.441 µM (active) |
| COc1ccc(/C=N/Nc2cc(N3CCCC3)nc(N3CCCC3)n2)cc1 | – | > 100 µM (inactive) | 2.63 µM (active) |
